A melting point compilation (Tetko et al.; mined from patent text by program, amines drawn as free bases though some values may be those of a salt)

Row | melting point [°C] | SMILES
1 | 157 to 158 | Cc1cc2c(cc1S(=O)(=O)c1ccc(F)cc1)OC(C(=O)O)O2 (stereo unspecified)
2 | 158 to 160 | COc1ccc(N)c(-c2ccc3cc(OC)c(OC)cc3c2)c1
3 | 138 | CCCc1c(-c2cc(=O)c3c(O)cc(OCC(=O)OCC)cc3o2)ccc(OC)c1O
4 | 116 to 117 | COC1OC(CO)C(O)C(NC(=O)N(C)N=O)C1O (stereo unspecified)
5 | 195 to 198 | CCCCN(CCCC)c1ccc(C=C2C(=C(C#N)C#N)c3ccccc3C2=C(C#N)C#N)c(OC)c1
6 | 177 to 179 | COC(=O)c1ccc(-c2ccc(Cl)cc2)[nH]1
7 | 146 to 147 | CC(=O)ONC(=N)c1ccc(-c2nc(C)c(C(=O)NC(C)C(O)(Cn3cncn3)c3ccc(F)cc3F)s2)cc1 (stereo unspecified)
8 | 147 to 148 | COc1ccc(CNc2n[nH]c(N=CN(C)C)c2C#N)cc1
9 | 89 | COc1cc(CN2CCN(c3ccccc3C)CC2)cc(OC)c1OC
10 | 116 to 118 | CCc1cc(OC)cc(C(=O)O)c1C(=O)OC
11 | 206 to 208 | CC(C)C(=O)Nc1ccc2oc3c(c2c1)CCCC3
12 | 123 to 125 | O=C(NCCCCCn1ccnc1)c1ccc(Cl)s1
13 | 139 to 141 | COc1ccc(C(C)C)cc1-c1cc(C(=O)OCc2ccccc2)c(OCc2ccccc2)cc1OCc1ccccc1
14 | 114 | CC(O)C(NC(=O)OC(C)(C)C)C(=O)OCC(=O)c1ccccc1 (stereo unspecified)
15 | 172 to 174 | CCCOc1c(OC)cc(C(CCC(C(=O)O)c2cc(OC)c(OC)c(OC)c2)C(=O)O)cc1SC (stereo unspecified)
16 | 200 to 201 | O=C(Nc1ccccc1)C1=C(N2CCCC2)COC1=O
17 | 83 to 84 | CCCCCC#CCC(CC#CCCCCC)(C(=O)NO)S(=O)(=O)c1ccc(OC)cc1
18 | 76.7 to 78.8 | CCOC(=O)c1cn(-c2cccc(COCc3ccccn3)c2)cn1
19 | 120 to 122 | O=C(Nc1nccs1)C(CC1CCCC1)c1ccc(Cl)c(Cl)c1 (stereo unspecified)
20 | 311 to 317 | O=C(O)c1ccc(Nc2nccc(-c3cccnc3)n2)cc1
21 | 185 to 187 | Cn1c(Cl)c(C=O)c2cccc(Cl)c21
22 | 178 to 181 | CN(C)CCCNc1ccnc2cc3c(cc12)OCO3
23 | 96 | Cn1nnc2ccc(CNNc3ccc(Cl)cc3)cc21

Row | melting point [°C] | SMILES
24 | 151 to 155 | COC(=O)c1cscc1NC(=O)COc1ccc(-c2ccccc2Cl)cn1
25 | 86 to 88 | CCOC(=O)C1=C(C)NC(COC(=O)COc2ccc(Cl)cc2)=C(C(=O)OCC)C1c1ccccc1[N+](=O)[O-] (stereo unspecified)
26 | 72 to 74 | CCSC(=O)c1c(C(F)(F)F)nc(C(F)F)c(C(=O)OC)c1N
27 | 241 to 244 | Cc1ccccc1C(=O)Nc1ccc(C(=O)N2Cc3ccnn3Cc3ccccc32)c(Cl)c1
28 | 242 to 243 | CC(=O)Nc1ccc(C2=NN(C(=O)C3CC3)C(C)Cc3cc4c(cc32)OCO4)cc1 (stereo unspecified)
29 | 240 to 242 | Cn1c(COc2ccc(CC3SC(=O)NC3=O)cc2)nc2ccc(O)nc21 (stereo unspecified)
30 | 172 to 175 | CC(C)Oc1ccccc1-c1cc(=O)c2cc(C#N)ccc2o1
31 | 40 to 44 | CNCCCOc1ccc(-c2nnc(CSCCOc3ccccc3)o2)cc1
32 | 144 to 145 | CC(C)c1cccc(C(C)C)c1NC(=O)CNC(c1cccc(C(F)(F)F)c1)c1cccc(C(F)(F)F)c1
33 | 165 to 167 | Nc1nc(N2CCOCC2)c2ncn(C3CC(F)C(CO)O3)c2n1 (stereo unspecified)
34 | 125 to 127 | CCN(CC1OCCO1)c1c([N+](=O)[O-])cc(S(C)(=O)=O)cc1[N+](=O)[O-]
35 | 157 to 158 | CCC(=O)Oc1ccc(/C=C/C=C/C(=O)NCCN2CCC(c3c[nH]c4ccccc34)CC2)cc1OC
36 | 111 | Cc1nnn(CC(I)=C(I)I)n1
37 | 108 to 109 | OC(c1ccc(F)cc1)(c1ccc(F)cc1)C1CCN(CCCOc2ccc(-c3ccccc3)cc2)CC1
38 | 285 to 288 | N=C(N)c1ccc(NC(=O)NC(=O)c2ccc(OCC(=O)O)cc2)cc1
39 | 279 | CNC(=O)C1CCN(c2cc(-c3ccc(Cl)cc3)nc3ccc(F)cc23)CC1
40 | 168 | CCOC(=O)C(=O)Nc1nccc2snc(NC(=O)C(=O)OCC)c12
41 | 133 to 136 | C=CS(=O)(=O)Nc1cccc(Nc2nc(N[C@H](C)C(C)(C)C)c3nc[nH]c3n2)c1
42 | 156 to 157 | CC(C)(C)NC(=NC#N)Nc1cc(F)cc(Cl)c1
43 | 101 to 102 | CC(C)(C)OC(=O)NCC(O)c1cccs1 (stereo unspecified)
44 | 118 to 119 | O=CN1CCC(Oc2c(F)c(F)c(F)c(F)c2F)(c2ccccc2)CC1
45 | 192 to 193 | Nc1nc(SCc2ccc3ccccc3c2)nc(O)c1CCO
46 | 55 | CCc1cc2cc([N+](=O)[O-])ccc2s1

Row | melting point [°C] | SMILES
47 | 170 to 172 | CC(=O)c1c(CCc2ccc(F)cc2)[nH]c2ccc(Cl)cc12
48 | 140 to 141 | CN(C)Cc1cccc(OCCCNc2nc(Cc3ccccc3)n[nH]2)c1
49 | 78 to 79 | O=C1C(CCO)Oc2cc(F)ccc2N1Cc1cccc(F)c1 (stereo unspecified)
50 | 137 | CC(C)(C)OC(=O)Nc1ccc(C#Cc2nccs2)cc1[N+](=O)[O-]
51 | 153 to 155 | CS(=O)(=O)NC(=O)c1cccc(N)c1
52 | 185 to 205 | CC(=O)c1cccc2cc3c(C(C)=O)cccc3cc12
53 | 165 to 166 | CC(C)OCCOc1ccc(-c2ccc3c(c2)C=C(C(=O)O)CCN3C=O)cc1
54 | 121 to 122 | O=[N+]([O-])CC1(SCc2ccccc2)CCC2(CC1)OCCO2
55 | 169 to 171 | CC(C)NC(=O)C1=C(C(=O)Nc2cc(OC3CCCC3)c(Cl)cc2F)CCCC1
56 | 43 to 44 | CCCCCCCCCCCCCCCCCC(=O)C(=O)OCC
57 | 174 to 176 | CC1(C)Oc2ccc(C#N)cc2[C@@H](NC2=CC(=O)CC2)[C@@H]1O (relative stereo)
58 | 76 | CCCOCCOC(=O)C1=C(C)NN=C(CC)C1c1cccc([N+](=O)[O-])c1 (stereo unspecified)
59 | 127 to 128 | COC(=O)CN(C(=O)c1ccc(Cl)cc1)c1ccccc1CCC#N
60 | 105 to 106 | CCCS(=O)(=O)c1cc(C(=O)NCC2CCCN2CC)c(OC)cc1N (stereo unspecified)
61 | 94 to 96 | COc1cc(CNc2ccc(C)cc2)cc(OC)c1OC
62 | 155 to 157 | CS(=O)(=O)c1ccc(-c2cnn(-c3ccc(F)c(Cl)c3)c(=O)c2-c2ccc(F)cc2)cc1
63 | 79 to 81 | CCCCCCCCCCCCCCN(c1ccccc1)c1snnc1C(N)=O
64 | 141 to 143 | O=S1(=O)NCN(CCCCF)c2cc(Cl)c(Cl)cc21
65 | 100 to 102 | COc1cc([N+](=O)[O-])c2nccc(C)c2c1OCCCc1ccccc1
66 | 130 to 131 | CN(CCO)Cc1ccc2c(c1)c(=O)c(C(=O)NCc1ccc(Cl)cc1)cn2C
67 | 110 to 113 | CCn1c2c(nc(-c3ccc(Cl)cc3)c1=O)CCCC2
68 | 111 to 112 | Cc1ccc(C2CCN(C(=O)CCC(=O)c3ccc4c(c3)CCN(C)CC4)CC2)cc1
69 | 262 to 264 | Cn1cc(C(=O)C(=O)NC2=CC(=O)OC2)c2ccccc21

Row | SMILES | melting point [°C]
70 | CNC(=O)ON=C1N=C(c2ccc(Cl)cc2)C(C)(C)S1 | 147 to 149
71 | O=C(Nc1ccc(Br)cc1)N1CCN2CCC1CC2 | 228 to 231
